Data from EP3046573B1, “AMYLIN ANALOGUES” (Zealand Pharma A/S, priority 2013, dated 2015).
Where two headings read alike, the source gives them in different places. Numbered stars: 1 amine (or outer) side, 2 acyl side, 3 side chain; on linkers, the order of the positions; unused ones are H or OH. Bridge positions count the residues as written; N and C are the ends. Square brackets hold non-standard residues; d marks the D form. Peptide text beside a SMILES is read from it. * marks the point of attachment. C20 diacid = O=C(O)CCCCCCCCCCCCCCCCCCC(=O)*; γGlu = O=C(O)[C@H](CCC(=O)[*:2])N[*:1]; NMeI = CC[C@H](C)[C@H](NC)C(=O)O; Sar = CNCC(=O)O

Key:
[1] = target: T1, human calcitonin receptor (hCTR2) (Homo sapiens, UniProt P30988); assay: hCTR2 assay: induction of cAMP (AlphaScreen cAMP Assay kit) in COS7 cells expressing hCTR2; assay type: cell-based
T1 construct: expressed in transfected cells
T1 sequence (P30988 25-474): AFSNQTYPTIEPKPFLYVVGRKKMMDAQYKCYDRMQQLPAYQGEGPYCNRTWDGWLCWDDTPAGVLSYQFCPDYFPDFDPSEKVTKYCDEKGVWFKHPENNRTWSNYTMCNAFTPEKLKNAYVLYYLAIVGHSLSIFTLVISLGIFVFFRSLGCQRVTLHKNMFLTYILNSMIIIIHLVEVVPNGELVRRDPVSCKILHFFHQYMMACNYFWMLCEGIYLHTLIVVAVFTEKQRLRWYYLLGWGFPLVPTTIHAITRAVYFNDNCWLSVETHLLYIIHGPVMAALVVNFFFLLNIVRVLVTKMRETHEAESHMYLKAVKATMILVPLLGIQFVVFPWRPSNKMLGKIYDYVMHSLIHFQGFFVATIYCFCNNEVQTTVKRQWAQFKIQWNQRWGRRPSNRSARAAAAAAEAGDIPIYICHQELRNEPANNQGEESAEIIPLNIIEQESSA
Outline: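 cAMP read-out by AlphaScreen after cell lysis; EC50 and % efficacy vs pramlintide from 4-parameter logistic fitting. Agonist stimulation: hCTR2-COS7 stable cells, 15 min, 37° C, 100 µM IBMX, 0.1% casein, Tyrode/HEPES pH 7.4.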

[2] = Solubility assessment (turbidity absorbance at 325 nm); assay type: physicochemical; settings: stock 2 mg/ml diluted 1:1, ambient temperature (typically 25°C), n=1; for Solubility, Acetate buffer pH 4: 100 mM acetate buffer pH 4.0; for Solubility, Acetate buffer pH 5: 100 mM acetate buffer pH 5.0; for Solubility, Histidine buffer pH 6: 100 mM histidine buffer pH 6.0; for Solubility, Histidine buffer pH 7: 100 mM histidine buffer pH 7.0; for Solubility, Phosphate buffer pH 6: 100 mM phosphate buffer pH 6.0; for Solubility, Phosphate buffer pH 7: 100 mM phosphate buffer pH 7.0; for Solubility, Phosphate buffer pH 7.5: 100 mM phosphate buffer pH7.5
Outline: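 Turbidimetric screen across pH 4.0–7.5 in 100 mM acetate, histidine and phosphate buffers. A 2 mg/ml peptide stock (pH 2.5) was diluted 1:1 into each, then A325 measured at ambient temperature; values ≤ 0.02 AU denoted solubility of 1 mg/ml or more.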

[3] = cAMP induction in COS7 cells expressing hCTR2, average of a minimum of 3 determinations, read-out: hCTR2 EC50

EC50 [1, 3]	Solubility, Acetate buffer pH 4 [2]	Solubility, Acetate buffer pH 5 [2]	Solubility, Histidine buffer pH 6 [2]	Solubility, Histidine buffer pH 7 [2]	Solubility, Phosphate buffer pH 6 [2]	Solubility, Phosphate buffer pH 7 [2]	Solubility, Phosphate buffer pH 7.5 [2]	Compound	EC50 [1]
0.062 nM	SS (SS indicates solubility ≥ 1mg/ml)	SS (SS indicates solubility ≥ 1mg/ml)	II (II indicates solubility ≤ 1 mg/ml)	SS (SS indicates solubility ≥ 1mg/ml)	SS (SS indicates solubility ≥ 1mg/ml)	SS (SS indicates solubility ≥ 1mg/ml)	SS (SS indicates solubility ≥ 1mg/ml)	CC[C@H](C)[C@@H](C(=O)N[C@@H](CC(C)C)C(=O)N[C@@H](CO)C(=O)N[C@@H](CO)C(=O)N[C@H](C(=O)N[C@@H](CC(=O)O)C(=O)N[C@H](C(=O)NCC(=O)N[C@@H](CO)C(=O)N[C@@H](CCC(=O)O)C(=O)N[C@H](C(=O)N1CCC[C@H]1C(N)=O)[C@@H](C)O)C(C)C)[C@@H](C)O)N(C)C(=O)[C@H](C)NC(=O)CN(C)C(=O)[C@H](Cc1ccccc1)NC(=O)[C@H](CO)NC(=O)[C@H](CO)NC(=O)[C@H](CCCNC(=N)N)NC(=O)[C@H](Cc1c[nH]cn1)NC(=O)[C@H](CC(C)C)NC(=O)[C@H](Cc1ccccc1)NC(=O)[C@H](CCC(=O)O)NC(=O)[C@H](C)NC(=O)[C@H](CC(C)C)NC(=O)[C@H](CCCNC(=N)N)NC(=O)[C@H](CCC(N)=O)NC(=O)[C@@H](NC(=O)[C@H](C)NC(=O)[C@@H]1CSSC[C@H](NC(=O)[C@H](CCCNC(=N)N)NC(=O)CC[C@H](NC(=O)CCCCCCCCCCCCCCCCCCC(=O)O)C(=O)O)C(=O)N[C@@H](CC(N)=O)C(=O)N[C@@H]([C@@H](C)O)C(=O)N[C@@H](C)C(=O)N[C@@H]([C@@H](C)O)C(=O)N1)[C@@H](C)O [Compound 80, [19CD]-isoGlu-RC()NTATC()ATQRLAEFLHRSSF-Gly(Me)-A-Ile(Me)-LSSTDVGSETP-NH2] ({C20 diacid-γGlu}-RCNTATCATQRLAEFLHRSSF[Sar]A[NMeI]LSSTDVGSETP-NH2; disulfide 2-7)	–
0.057 nM	SS (SS indicates solubility ≥ 1mg/ml)	SS (SS indicates solubility ≥ 1mg/ml)	SS (SS indicates solubility ≥ 1mg/ml)	SS (SS indicates solubility ≥ 1mg/ml)	SS (SS indicates solubility ≥ 1mg/ml)	SS (SS indicates solubility ≥ 1mg/ml)	SS (SS indicates solubility ≥ 1mg/ml)	CC[C@H](C)[C@@H](C(=O)N[C@@H](CC(C)C)C(=O)N[C@@H](CO)C(=O)N[C@@H](CO)C(=O)N[C@H](C(=O)N[C@@H](CC(=O)O)C(=O)N[C@H](C(=O)NCC(=O)N[C@@H](CO)C(=O)N[C@@H](CC(=O)O)C(=O)N[C@H](C(=O)N1CCC[C@H]1C(N)=O)[C@@H](C)O)C(C)C)[C@@H](C)O)N(C)C(=O)[C@H](C)NC(=O)CN(C)C(=O)[C@H](Cc1ccccc1)NC(=O)[C@H](CO)NC(=O)[C@H](CO)NC(=O)[C@H](CCCNC(=N)N)NC(=O)[C@H](Cc1c[nH]cn1)NC(=O)[C@H](CC(C)C)NC(=O)[C@H](Cc1ccccc1)NC(=O)[C@H](CCC(=O)O)NC(=O)[C@H](C)NC(=O)[C@H](CC(C)C)NC(=O)[C@H](CCCNC(=N)N)NC(=O)[C@H](CCC(N)=O)NC(=O)[C@@H](NC(=O)[C@H](C)NC(=O)[C@@H]1CSSC[C@H](NC(=O)[C@H](CCCNC(=N)N)NC(=O)CC[C@H](NC(=O)CCCCCCCCCCCCCCCCCCC(=O)O)C(=O)O)C(=O)N[C@@H](CC(N)=O)C(=O)N[C@@H]([C@@H](C)O)C(=O)N[C@@H](C)C(=O)N[C@@H]([C@@H](C)O)C(=O)N1)[C@@H](C)O [Compound 81, [19CD]-isoGlu-RC()NTATC()ATQRLAEFLHRSSF-Gly(Me)-A-Ile(Me)-LSSTDVGSDTP-NH2] ({C20 diacid-γGlu}-RCNTATCATQRLAEFLHRSSF[Sar]A[NMeI]LSSTDVGSDTP-NH2; disulfide 2-7)	–

Compound	EC50 [1, 3]	Solubility, Acetate buffer pH 4 [2]	Solubility, Acetate buffer pH 5 [2]	Solubility, Histidine buffer pH 6 [2]	Solubility, Histidine buffer pH 7 [2]	Solubility, Phosphate buffer pH 6 [2]	Solubility, Phosphate buffer pH 7 [2]	Solubility, Phosphate buffer pH 7.5 [2]	EC50 [1]
CC[C@H](C)[C@@H](C(=O)N[C@@H](CC(C)C)C(=O)N[C@@H](CO)C(=O)N[C@@H](CO)C(=O)N[C@H](C(=O)N[C@@H](CC(N)=O)C(=O)N[C@H](C(=O)NCC(=O)N[C@@H](CO)C(=O)N[C@@H](CC(N)=O)C(=O)N[C@H](C(=O)N1CCC[C@H]1C(N)=O)[C@@H](C)O)C(C)C)[C@@H](C)O)N(C)C(=O)[C@H](C)NC(=O)CN(C)C(=O)[C@H](Cc1ccccc1)NC(=O)[C@H](CC(N)=O)NC(=O)[C@H](CC(N)=O)NC(=O)[C@H](CO)NC(=O)[C@H](CO)NC(=O)[C@H](CCCNC(=N)N)NC(=O)[C@H](Cc1c[nH]cn1)NC(=O)[C@H](CC(C)C)NC(=O)[C@H](Cc1ccccc1)NC(=O)[C@H](CCC(=O)O)NC(=O)[C@H](C)NC(=O)[C@H](CC(C)C)NC(=O)[C@H](CCCNC(=N)N)NC(=O)[C@H](CCC(N)=O)NC(=O)[C@@H](NC(=O)[C@H](C)NC(=O)[C@@H]1CSSC[C@H](NC(=O)[C@H](CCCNC(=N)N)NC(=O)[C@H](Cc2c[nH]cn2)NC(=O)CC[C@H](NC(=O)CCCCCCCCCCCCCCCCCCC(=O)O)C(=O)O)C(=O)N[C@@H](CC(N)=O)C(=O)N[C@@H]([C@@H](C)O)C(=O)N[C@@H](C)C(=O)N[C@@H]([C@@H](C)O)C(=O)N1)[C@@H](C)O [Compound 85, [19CD]-isoGlu-HRC()NTATC()ATQRLAEFLHRSSNNF-Gly(Me)-A-Ile(Me)-LSSTNVGSNTP-NH2] ({C20 diacid-γGlu}-HRCNTATCATQRLAEFLHRSSNNF[Sar]A[NMeI]LSSTNVGSNTP-NH2; disulfide 3-8)	–	SS (SS indicates solubility ≥ 1mg/ml)	SS (SS indicates solubility ≥ 1mg/ml)	SS (SS indicates solubility ≥ 1mg/ml)	SS (SS indicates solubility ≥ 1mg/ml)	SS (SS indicates solubility ≥ 1mg/ml)	SS (SS indicates solubility ≥ 1mg/ml)	SS (SS indicates solubility ≥ 1mg/ml)	0.083 nM
